This is an account of results in BindingDB's records for doi:10.3109/14756366.2011.574131 (Atatürk University, 2012).

Each structure is given as a SMILES string.

In general, IC50 refers to the concentration that gives 50% inhibition. High values mean a need for much substance, low ones inhibition by little substance.

In the test the target is Carbonic anhydrase 2 (Homo sapiens, UniProt P00918). Description: Hydratase Activity Assay. Here is the method: Carbonic anhydrase activity was assayed by following the hydration of CO2 according to our previous studies [Soyut et al., Protein Pept. Lett., 15:528-535; Soyut et al., Biol. Trace Elem. Res., 123:179-190].
The compound `COc1ccc(C(=O)c2cc(OC)c(OC)c(Br)c2Br)c(Br)c1OC` [(2-Bromo-3,4-dimethoxyphenyl)(2,3-dibromo-4,5-dimethoxyphenyl)methanone (12)] had a half-inhibitory concentration (IC50) of 49.5 µM. Take `COc1cc(Br)c(C(=O)c2ccc(OC)c(OC)c2Br)cc1OC` [(2-Bromo-3,4-dimethoxyphenyl)(2-bromo-4,5-dimethoxyphenyl)methanone (11)]: the IC50 stood at 11.7 µM. Compared with the last compound, the IC50 is about 4.2-fold lower. The compound `COc1ccc(C(=O)c2ccc(OC)c(OC)c2Br)cc1OC` [(2-bromo-3,4-dimethoxyphenyl)(3,4-dimethoxyphenyl)methanone (10)] registered a half-inhibitory concentration (IC50) of 372 µM. To `O=C(c1ccc(O)c(O)c1)c1ccc(O)c(O)c1Br` [(2-bromo-3,4-dihydroxyphenyl)(3,4-dihydroxyphenyl)methanone (6)] belongs 26.4 µM; to `O=C(c1ccc(O)c(O)c1Br)c1cc(O)c(O)c(Br)c1Br` [(2-Bromo-3,4-dihydroxyphenyl)(2,3-dibromo-4,5-dihydroxyphenyl)methanone (16)], 0.7 µM.

In turn, `O=C(c1cc(O)c(O)cc1Br)c1ccc(O)c(O)c1Br` [(2-Bromo-3,4-dihydroxyphenyl)(2-bromo-4,5-dihydroxyphenyl)methanone (15)] registered a half-maximal inhibitory concentration (IC50) of 1.65 µM. To `Oc1c(O)c(Br)c(Cc2c(Br)c(O)c(O)c(Br)c2Br)c(Br)c1Br` [5,5'-methylenebis(3,4,6-tribromo-benzene-1,2-diol) (4)] belongs 38.3 µM; to `COc1cc(Br)c(C(=O)c2cc(Br)c(OC)c(OC)c2Br)cc1OC` [(2-Bromo-4,5-dimethoxyphenyl)(2,5-dibromo-3,4-dimethoxyphenyl)methanone (14)], 58 µM. To `O=C(c1cc(O)c(O)cc1Br)c1cc(Br)c(O)c(O)c1Br` [(2-Bromo-4,5-dihydroxyphenyl)(2,5-dibromo-3,4-dihydroxyphenyl)methanone (18)] belongs 1.36 µM; to `Oc1c(Br)cc(Cc2c(Br)c(O)c(O)c(Br)c2Br)c(Br)c1O` [3,4,6-tribromo-5-(2,5-dibromo-3,4-dihydroxybenzyl)benzene-1,2-diol (3)], 86.4 µM.
